Measured values reported in article PMC12655235 (Pharmaceuticals, 2025).

Tests used:
[1] = Solubility study of folic acid in acetone; format: physicochemical; conditions: sedimentation at 40 mg
Procedure: The optimized formulation, composed of 39.60% w/w solutol, 10.50% w/w oils and 16.60 mg total drugs, was selected using Design Expert® software based on achieving the smallest PS, then prepared and experimentally evaluated to verify agreement between predicted and actual values. […] Accordingly, LNCs functionalized with 10, 20, and 30 mg FA were prepared and assessed for PS, PDI, and ZP. […] This oily phase was then mixed with the aqueous phase (composed of 100 mg sodium chloride in 2.5 mL distilled water). Then the mixture was subjected to three thermal cycling intervals (85 °C and 55 °C) under magnetic stirring. Finally ice-cold water was added till 10 g formulation was obtained. Stirring then continued for 10 min at room temperature.

U87 cells = experiment: MTT assay for cell viability; format: cell-based; conditions: Homo sapiens, U-87 MG, 24 h incubation
Procedure: U87 cells were maintained in DMEM supplemented with 10% fetal bovine serum and antibiotics (100 U/mL penicillin, 100 µg/mL streptomycin) at 37 °C in a humidified 5% CO2 atmosphere under sterile conditions. To ensure accurate experimental comparisons, all experiments included two control groups: a negative control of cells incubated in drug-free medium, and a solvent control with cells exposed to drug-free medium containing 0.5% DMSO, to evaluate any potential solvent toxicity. Cell viability was determined using the MTT assay after a 24 h incubation of U87 cells with various drug formulations. These included free atorvastatin, free curcumin, a solution combining atorvastatin and curcumin, At-Cu LNCs and FA-At-Cu LNCs. Stock solutions (2 mg/mL) for individual free drugs and their combination were prepared in phosphate-buffered saline (PBS) containing 1% sterile DMSO to ensure complete solubilization, from which serial dilutions (25–800 µg/mL) were then made. At-Cu LNCs and FA-At-Cu LNCs were sonicated for 5 min prior to preparing their serial dilutions (0.025–250 µg/mL). […] The resultant formazan crystals were dissolved in acidified isopropanol, and absorbance was measured at 560 nm using PHERAstar microplate reader (BMG Labtech, Ortenberg, Germany). Cell viability was expressed as a percentage of untreated control cells, and half-maximal inhibitory concentrations (IC50) were calculated. […]

[2] = cited from earlier work
[3] = In vivo pharmacokinetics and biodistribution of 131I-radiolabeled drugs in glioma-bearing mice; parameters: species or system BALB/c mice; conditions: [131I]-curcumin
Procedure: Labeling conditions were systematically optimized by varying pH, drug concentration, oxidant amount, and reaction time. […] Purification was achieved by RP-HPLC to remove free iodine and impurities. […] The radiochemical yield was determined by calculating the percentage of the total radioactivity attributed to the radio-iodinated compound, using the following equation [105, 106]: Radiochemical yield %=Activity of labeled compond/Total activity ×100
All animal procedures were conducted in accordance with arrive guidelines and were approved by the Research Ethics Committee at the Faculty of Pharmacy, The British university in Egypt, with approval number (EX-2508). Male BALB/c mice (6 weeks old, weighing 20–25 g) were utilized for the study. Prior to the start of experiments, animals were acclimatized for two weeks under controlled environmental conditions (25 ± 2 °C, 12 h light/dark cycle) in group-housed (3–5 mice/cage) polypropylene cages at the animal house of the Egyptian Atomic Energy Authority. […] For induction of brain tumor in mice, they were anesthetized through intraperitoneal injection of 0.1 mL of ketamine-xylazine solution containing ketamine HCl (25 mg/mL) and xylazine (2.5 mg/mL) as described in current protocols. To implant cells intracranially, a calibrated 26-gauge 701N Hamilton micro-syringe (Micromeasure B.V., The Hague, The Netherlands) was used to inject 5 µL of 2.5 × 10^6 cells of CT-2A glioma cell suspension intracranially through the post glenoid foramen as previously reported. The right auricle was slowly pushed forward during the procedure, exposing the site of insertion. The syringe was held at an appropriate angle, and the cell suspension was slowly injected over 30 s. On completion, the needle was removed gently while applying light finger pressure to prevent bleeding. Additional pressure was applied for an additional 30 s after the removal of the needle to achieve hemostasis.
One hundred and eighty BALB/c mice were randomly assigned into six experimental groups, each further divided into six subgroups (n = 5 per subgroup), corresponding to specific time points post-injection: 0.5, 1, 2, 4, 8, and 24 h. […] Formulations were prepared under aseptic conditions using sterile water for injection and a laminar flow hood.
At each time point, five mice per group were anesthetized using isoflurane, and blood samples were collected by cardiac puncture into pre-heparinized polypropylene tubes. Mice were then euthanized by CO2 inhalation, and organs including the brain, liver, and kidneys and others were excised, rinsed with physiological saline, gently blotted, and weighed. Tissue and plasma samples were analyzed for radioactivity using a well-type γ-scintillation counter (SR-7,Nuclear Enterprises Ltd., San Carlos, CA, USA) and data were expressed as the percentage of the injected dose per gram of tissue (%ID/g).
The mean radioactivity values (represented as % injected dose per gram of tissue, %ID/g) acquired at various time points were examined using PKSolver, a Microsoft Excel add-in, in order to evaluate the pharmacokinetic behavior and tissue distribution of the radiolabeled formulations. […] AUC values based on time-radioactivity data were calculated using the trapezoidal rule.
Two quantitative parameters were computed using the AUC values obtained from the biodistribution study in order to assess the targeting performance and tissue selectivity of the formulations. The following equation was used to calculate tumor targeting efficiency (%): Tumor targeting efficiency %= AUC0−24 glioma/AUC0−24 blood x100

[4] = i.v. 2 mg/kg, glioma-bearing mice

## Nc1nc2ncc(CNc3ccc(C(=O)N[C@@H](CCC(=O)O)C(=O)O)cc3)nc2c(=O)[nH]1 [FA, Folic acid]
[1]
  Complete solubility in acetone: up to 30 mg

## CC(C)c1c(C(=O)Nc2ccccc2)c(-c2ccccc2)c(-c2ccc(F)cc2)n1CC[C@@H](O)C[C@@H](O)CC(=O)O [atorvastatin, Atorvastatin calcium]
U87 cells
  IC50: 680 ± 17.2 µg/mL
[2]
  Renal excretion of atorvastatin and its active metabolites: less than 2 % of the dose

## COc1cc(/C=C/C(=O)CC(=O)/C=C/c2ccc(O)c(OC)c2)ccc1O [curcumin, Curcumin]
[3]; i.v.
  AUC (0–24 h) Intestine, curcumin: 526.50 ± 111.63 %ID*h/g tissue
  AUC (0–24 h) Spleen, curcumin: 7.07 ± 1.70 %ID*h/g tissue
  AUC (0–24 h) kidneys, curcumin: 57.87 ± 12.47 %ID*h/g tissue
  AUC (0–24 h) liver, curcumin: 711.50 ± 114.83 %ID*h/g tissue
[3]; [4]
  AUC (0–24 h) Blood, curcumin: 72.27 ± 15.44 %ID*h/g tissue
  AUC (0–24 h) Brain, curcumin: 1.47 ± 0.44 %ID*h/g tissue
  AUC (0–24 h) Glioma, curcumin: 3.72 ± 1.34 %ID*h/g tissue
U87 cells
  IC50: 724 ± 78.3 µg/mL
